# From patent publication US20060251638A1, “Cytoprotection through the use of hif hydroxylase inhibitors” (priority 2003, published 2006)
# How the values were obtained:
# [1] = tested on: gene encoding adrenomedullin; assay: Adrenomedullin gene expression in Hep3B cells (microarray); format: cell-based, human; conditions: 25 μM compound, 6 hrs, average of two determinations
# Method: Hep3B cells (ATCC No. HB-8064) were grown in DMEM containing 8% fetal bovine serum. Hep3B cells were seeded into 6-well culture dishes at ˜500,000 cells per well. After 8 hours, the media was changed to DMEM containing 0.5% fetal bovine serum and the cells were incubated for an additional 16 hours. Compound A, compound B, compound C, compound G, or compound H was added to the cells (25 μM final concentration) and the cells were incubated for various times. Control cells were incubated with vehicle (DMSO) with no compound treatment. Harvested cells were assessed for cell viability (GUAVA), or added to RNA extraction buffer (RNeasy, Qiagen) and stored at −20° C. for subsequent RNA purification.
# RNA was precipitated in 0.3 M sodium acetate (pH 5.2), 50 ng/ml glycogen, and 2.5 volumes of ethanol for one hour at −20° C. Samples were centrifuged and pellets were washed with cold 80% ethanol, dried, and resuspend in water. Double stranded cDNA was synthesized using a T7-(dT)24 first strand primer (Affymetrix, Inc., Santa Clara Calif.) and the SUPERSCRIPT CHOICE system (Invitrogen) according to the manufacturer's instructions. The final cDNA was extracted with an equal volume of 25:24:1 phenol:chloroform:isoamyl alcohol using a PHASE LOCK GEL insert (Brinkman, Inc., Westbury N.Y.). The aqueous phase was collected and cDNA was precipitated using 0.5 volumes of 7.5 M ammonium acetate and 2.5 volumes of ethanol. Alternatively, cDNA was purified using the GENECHIP sample cleanup module (Affymetrix) according to the manufacturer's instructions.
# Biotin-labeled cRNA was synthesized from the cDNA in an in vitro […] (IVT) reaction using a BIOARRAY HighYield RNA transcript labeling kit (Enzo Diagnostics, Inc., Farmingdale N.Y.) according to the manufacturer's instructions. Final labeled product was purified and fragmented using the GENECHIP sample cleanup module (Affymetrix) according to the manufacturer's instructions.
# Hybridization cocktail was prepared by bringing 5 μg probe to 100 μl in 1× hybridization buffer (100 mM MES, 1 M [Na^+], 20 mM EDTA, 0.01% Tween 20), 100 μg/ml herring sperm DNA, 500 μg/ml acetylated BSA, 0.03 nM contol oligo B2 (Affymetrix), and 1× GENECHIP eukaryotic hybridization control (Affymetrix). The cocktail was sequentially incubated at 99° C. for 5 minutes and 45° C. for 5 minutes, and then centrifuged for 5 minutes. The […] array (Affymetrix) was brought to room temperature and then prehybridized with 1× hybridization buffer at 45° C. for 10 minutes with rotation. The buffer was then replaced with 80 μl hybridization cocktail and the array was hybridized for 16 hours at 45° C. at 60 rpm with counter balance. Following hybridization, arrays were washed once with 6×SSPE, 0.1% Tween 20, and then washed and stained using R-phycoerythrin-conjugated streptavidin (Molecular Probes, Eugene Oreg.), goat anti-streptavidin antibody (Vector Laboratories, Burlingame Calif.), and a GENECHIP Fluidics Station 400 instrument (Affymetrix) according to the manufacturer's EukGE-WS2v4 protocol (Affymetrix). Arrays were analyzed using a GENEARRAY scanner (Affymetrix) and Microarray Suite software (Affymetrix).
# RNA quality was monitored by capillary electrophoresis (Agilent Bioanalyzer). […] Array performance was analyzed with Affymetrix MicroArray Suite (MAS) software and individual probe sets were assigned “present”, “marginal, and “absent” calls according to software defaults. […]
# [2] = tested on: H9c2 rat cardiomyocytes; assay: Intracellular ATP levels in H9c2 cardiomyocytes after oxygen and glucose deprivation (glucose-free DMEM, 2 mM KCN); format: cell-based; conditions: H9c2, 20 μM pretreatment 24 hours, glucose-free DMEM and 2 mM KCN for 30 minutes; vehicle control 415
# Method: In similar experiments, H9c2 rat cardiomyocytes were pretreated with either vehicle control (0.5% DMSO) or 20 μM of Compound A, Compound B, Compound C, Compound D, Compound E, Compound F, Compound G, or compound H. After 24 hours, cells were washed with serum-free DMEM and subjected to oxygen and glucose deprivation by incubating the cells in glucose-free DMEM and 2 mM KCN for 30 minutes. Intracellular ATP levels were then determined.
smiles,measurement,setting,value
"O=C(O)CNC(=O)c1ncc2cc(Oc3ccccc3)ccc2c1O [Compound G, [(4-Hydroxy-7-phenoxy-isoquinoline-3-carbonyl)-amino]-acetic acid]","Adrenomedullin gene expression, fold-increase above non-treated control",[1],3.278 fold
same,ATP (relative light units),[2],2128.3 relative light units
